Measured values: the NIST ThermoML archive (doi:10.1016/j.jct.2012.11.002)

Settings: Liquid, Vibrating tube method

COC(=O)C(C)O (stereo not given) [methyl 2-hydroxypropanoate]
mass density [kg/m3]
Settings | 100 kPa | 2500 kPa | 5000 kPa | 7500 kPa | 10000 kPa | 20000 kPa | 30000 kPa | 40000 kPa | 50000 kPa | 60000 kPa
283.15 K | 1104.41 | 1106 | 1107.57 | 1109.14 | 1110.68 | 1116.59 | 1122.23 | 1127.45 | 1132.48 | 1137.4
288.15 K | 1098.86 | 1100.48 | 1102.13 | 1103.77 | 1105.31 | 1111.55 | 1117.27 | 1122.78 | 1127.98 | 1132.78
293.15 K | 1093.31 | 1094.99 | 1096.72 | 1098.35 | 1099.92 | 1106.2 | 1112.08 | 1117.65 | 1122.93 | 1128.01
298.15 K | 1087.76 | 1089.42 | 1091.21 | 1092.88 | 1094.57 | 1101.03 | 1107.23 | 1112.83 | 1118.24 | 1123.43
303.15 K | 1082.13 | 1083.92 | 1085.75 | 1087.5 | 1089.23 | 1095.82 | 1101.97 | 1107.9 | 1113.44 | 1118.66
308.15 K | 1076.53 | 1078.32 | 1080.19 | 1082 | 1083.79 | 1090.68 | 1097.03 | 1102.99 | 1108.63 | 1114.02
